This note sets out measurements from patent US10988481B2, “Potent and selective mu opioid receptor modulators” (VIRGINIA COMMONWEALTH UNIVERSITY, priority 2016, dated 2021).

Where two headings read alike, the source gives them in different places.

One data set has as its target KOR (Homo sapiens (Human), UniProt P41145). Description: Competition binding assay at KOR ([3H]DPN, CHO cell membranes). The procedure: (§1) Chinese hamster ovary (CHO) cells expressing MOR, KOR and DOR were cultured for use in this assay. The culture media used for MOR CHO cells contained 500 mL DMEM/F12 media, 10% FBS, 1% penicillin/streptomycin, and 2.75 mL G418. The DOR and KOR CHO cells were cultured in the same media except that 5% FBS was used instead of 10%. The cells are allowed to grow until they are 80-95% confluent after which they are split. The cells are continuously cultured and split until there were sufficient cells for the studies.
(§2) Once the cells reached confluence, cells were harvested, centrifuged at 1000×g for 10 minutes, and suspended in membrane buffer (50 mM Tris, 3 mM MgCl2, and 1 mM EGTA, pH 7.4). The cells were then homogenized, centrifuged at 50000×g for 10 minutes, and re-homogenized in membrane buffer. A Bradford assay was conducted to determine membrane protein concentrations, and membrane protein preps (3 μg/aliquot) were stored at −80° C.
(§3) The competition binding assay was conducted to determine the affinity and selectivity of the synthesized compounds to MOR over KOR and DOR. The Kd and Bmax values for [^3H]NLX at MOR and [^3H]DPN at KOR had been determined previously. […] [^3H]NLX was used to label MOR whilst [^3H]DPN was used to label both DOR and KOR. The potency of the new compounds in displacing the specific binding of the radioligand was determined by linear regression analysis of Hill plots. […] The IC50 values were determined and converted to Ki values using the Cheng—Prusoff equation (Rosenblum, A. et al. Exp Clin Psychopharmacol. 2008, 16 (5), 405-416).

The next data set addresses MOR (Mus musculus, UniProt P42866). The format is biochemical. Particulars: relative to 3 μM DAMGO at MOR. As to the method: The [^35S]GTPγS functional assay was used to determine whether the synthesized compounds are agonists. The agonist's activity of the compounds was measured relative to 3 μM DAMGO at MOR. In this assay, upon receptor activation due to agonist binding, [^35S]GTPγS binds to the Gα subunit. Thus, [^35S]GTPγS replaces endogenous GTP and since the γ-thiophosphate bond is resistant to hydrolysis by GTPase, [^35S]GTPγS labelled Gα subunits accumulate and can be quantified by measuring the amount of incorporated [^35S].
The Bradford assay was then conducted to determine the concentration of the membrane protein using BSA as the standard. Suitable dilutions of membrane protein, [^35S]GTPγS), cold GTPγS, DAMGO and GDP were made in TME. The desired amount of the protein per tube was 10 μg. All the test-tubes were vortexed and incubated in the shaking water bath at 30° C. for 90 minutes, after which bound radioligand was filtered and rinsed three times with cold Tris buffer. The filtered bound radioligand was then transferred into scintillation tubes with 4 mL of scintillation fluid and radioligand was quantified. However, counting was delayed for 9 hrs to allow the radioactivity to enter the solution. Percent DAMGO stimulation was defined as (net stimulated binding of test compound/net stimulated binding of DAMGO)×100%. The normalized data were subjected to nonlinear regression analysis to determine EC50 and Emax values using Prism 6.0 software (GraphPad Software, San Diego, Calif.). The assay was performed in triplicate and repeated at least three times.

The target in the next data set is DOR (Homo sapiens (Human), UniProt P41143). Put plainly: Competition binding assay at DOR ([3H]DPN, CHO cell membranes). As to the method:
as §1, §2, §3

The next data set deals with morphine-pelleted mice. Description: Opioid withdrawal assay in chronic morphine-exposed (pelleted) mice. As to the method: (§4) For the in vivo studies, male Swiss Webster mice were used for both the warm-water immersion and opioid withdrawal assays. The mice weighed 23-35 g and were housed five to a cage in animal care quarters maintained at 22° C. on a 12 hour light-dark cycle with food and water available ad libitum. The mice were transferred to the test room and the tests were then conducted 18 hours later. Protocols and procedures were approved by the Institutional Animal Care and Use Committee at Virginia Commonwealth University Medical Center and complied with the recommendations of the International Association for the Study of Pain.
A 75 mg morphine pellet was implanted in to the base of the neck of the mice and the mice were then given time to recover in their home cages before the test was conducted. The mice were then allowed for 30 min habituation to an open-topped, square, clear Plexiglas observation chamber (26×26×26 cm^3) with lines partitioning the bottom into quadrants before they were given antagonist. All drugs and test compounds were administered subcutaneously (s.c.). […] Withdrawal commenced within 3 min after antagonist administration. Escape jumps, paw tremors and wet dog shakes were quantified by counting their occurrences over 20 min for each mouse using five mice per drug. The data is given as the mean±SEM. One-way ANOVA followed by the post hoc Dunnett test were performed to assess significance using the Prism 6.0 software.

Another data set concerns Swiss Webster mice. Description: Warm-water tail immersion assay, blockage of the antinociceptive effect of morphine. As to the method: FIG. 1A-D. Warm-water tail immersion assay in mice (n=5) at 56±0.1° C. All tested compounds were administered subcutaneously (s.c.). […] Compounds (10 mg/kg) were injected at Time 0. Twenty minutes after injection, tail flick was assessed with hot water. […] Tested compounds (10 mg/kg) were injected at Time 0. Five minutes later, morphine (10 mg/kg) was administered. Twenty minutes after morphine injection, tail flick was tested using hot water.
as §4
Each indole analogue of naltrexamine was tested for its ability to produce antinociception and/or to antagonize the antinociceptive effects of morphine in mice using the warm-water tail immersion assay described by Coderre and Rollman. The a water bath temperature was maintained at 56±0.1° C. The baseline latency (control) was determined before injecting the compounds into the mice. […] To test for agonism, the tail immersion was conducted 20 min (time that morphine effect starts to peak) after injecting the indole analogues of 6α/β-naltrexamine. To prevent tissue damage, a 10 s maximum cut off time was imposed. Antinociceptive response was calculated as the percentage maximum possible effect (% MPE), where % MPE=[(test−control)/(10−control)]×100. In the antagonism study, the 6α/β-naltrexamine derivatives were given 5 min before morphine. The tail immersion test was conducted 20 min after giving morphine. % MPE was calculated for each mouse using at least five mice per drug. AD50 values were calculated using the least-squares linear regression analysis followed by calculation of 95% confidence interval by Bliss method. A higher % MPE indicates a stronger antinociception effect by the ligand.

Where [1] appears, read: [3H]DPN, KOR CHO membranes, read-out: Ki (nM) ± SEM κ.
The mark [2] stands for this setting: [3H]DPN, DOR CHO membranes, read-out: Ki (nM) ± SEM δ.
The mark [3] stands for this setting: 1 mg/kg s.c., morphine-pelleted mice, counted over 20 min, mean±SEM.

Chain of MOR (P42866 whole entry, looked up): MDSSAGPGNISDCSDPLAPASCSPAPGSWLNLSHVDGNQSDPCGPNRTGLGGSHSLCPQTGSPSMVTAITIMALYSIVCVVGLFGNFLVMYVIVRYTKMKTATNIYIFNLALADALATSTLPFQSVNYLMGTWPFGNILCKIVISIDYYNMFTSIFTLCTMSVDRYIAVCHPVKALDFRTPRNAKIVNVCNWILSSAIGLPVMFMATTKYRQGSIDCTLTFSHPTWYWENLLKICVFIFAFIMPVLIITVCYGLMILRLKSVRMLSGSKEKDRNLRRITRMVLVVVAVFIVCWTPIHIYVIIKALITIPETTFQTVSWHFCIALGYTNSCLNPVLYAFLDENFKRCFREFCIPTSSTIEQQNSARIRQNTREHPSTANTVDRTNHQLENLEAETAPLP
Chain of DOR (P41143 whole entry, looked up): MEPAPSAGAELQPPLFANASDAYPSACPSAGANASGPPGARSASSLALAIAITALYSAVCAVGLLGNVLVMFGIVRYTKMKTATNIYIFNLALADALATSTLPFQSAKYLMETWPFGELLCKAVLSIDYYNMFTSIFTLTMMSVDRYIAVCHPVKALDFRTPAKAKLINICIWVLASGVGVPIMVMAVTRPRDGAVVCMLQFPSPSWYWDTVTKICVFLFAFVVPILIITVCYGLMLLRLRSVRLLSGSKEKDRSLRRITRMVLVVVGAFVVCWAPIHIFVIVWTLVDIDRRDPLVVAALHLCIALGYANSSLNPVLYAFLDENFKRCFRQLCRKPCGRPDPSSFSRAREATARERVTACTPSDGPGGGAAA

As for `Cl.O=C(N[C@H]1CC[C@@]2(O)[C@H]3Cc4ccc(O)c5c4[C@@]2(CCN3CC2CC2)[C@H]1O5)c1cccc2[nH]ccc12` [Compound 3, 17-Cyclopropylmethyl-3,14β-dihydroxy-4,5α-epoxy-6α-(indole-4-carboxamido)morphinan], the Ki (as a rule, a measure of affinity in units of concentration, obtained from inhibition or displacement) on KOR (setting [1]) stood at 1.49 ± 0.349 nM; on DOR (setting [2]) it was 9.26 ± 2.83 nM. In addition, the “Emax(% DAMGO) ± SEM” value at MOR stood at 28.9 ± 1 % DAMGO.
As to `Cl.O=C(N[C@@H]1CC[C@@]2(O)[C@H]3Cc4ccc(O)c5c4[C@@]2(CCN3CC2CC2)[C@H]1O5)c1ccc2[nH]ccc2c1` [Compound 13, 17-Cyclopropylmethyl-3,14β-dihydroxy-4,5α-epoxy-6β-(indole-5-carboxamido)morphinan], the Ki worked out at 0.512 ± 0.038 nM on KOR and 17.7 ± 4.78 nM at DOR. In addition, at MOR, the “Emax(% DAMGO) ± SEM” value is recorded as 20.15 ± 4.37 % DAMGO.
Turning to `O=C1CC[C@@]2(O)[C@H]3Cc4ccc(O)c5c4[C@@]2(CCN3CC2CC2)[C@H]1O5` [NTX, naltrexone, reference compound], in the data set with morphine-pelleted mice (setting [3]), the Escape jumps was 39.0±14.2 times, the Paw tremors is on record as 43.4±15.7 and the Wet-dog shakes is recorded as 18.6±1.2 times. Besides, the Diarrhea entry in the data set on morphine-pelleted mice (1 mg/kg, morphine pelleted mice (not in placebo pelleted mice)) is reported as “produced diarrhea”.
For the compound `Cl.O=C(CCc1c[nH]c2ccccc12)N[C@H]1CC[C@@]2(O)[C@H]3Cc4ccc(O)c5c4[C@@]2(CCN3CC2CC2)[C@H]1O5` [Compound 8, 17-Cyclopropylmethyl-3,14β-dihydroxy-4,5α-epoxy-6α-[3-(indol-3-yl)propanamido)morphinan], the Ki on KOR (setting [1]) came to 1.36 ± 0.178 nM; at DOR (setting [2]) it was 31.2 ± 8.12 nM. In addition, the “Emax(% DAMGO) ± SEM” value at MOR was determined as 41.10 ± 6.54 % DAMGO.
The corresponding values for `Cl.O=C(N[C@H]1CC[C@@]2(O)[C@H]3Cc4ccc(O)c5c4[C@@]2(CCN3CC2CC2)[C@H]1O5)c1c[nH]c2ccccc12` [Compound 2, 17-Cyclopropylmethyl-3,14β-dihydroxy-4,5α-epoxy-6α-(indole-3-carboxamido)morphinan] are 0.984 ± 0.125 nM, 10.5 ± 2.89 nM and 35.4 ± 4.8 % DAMGO.
Regarding `Cl.O=C(CCc1c[nH]c2ccccc12)N[C@@H]1CC[C@@]2(O)[C@H]3Cc4ccc(O)c5c4[C@@]2(CCN3CC2CC2)[C@H]1O5` [Compound 17, 17-Cyclopropylmethyl-3,14β-dihydroxy-4,5α-epoxy-60-[3-(indol-3-yl)propanamido)morphinan], the Ki at KOR (setting [1]) stood at 0.387 ± 0.045 nM; on DOR (setting [2]), 49 ± 4.72 nM. The “Blockage of morphine-mediated antinociception” value in the data set on Swiss Webster mice (10 mg/kg s.c. 5 min before morphine 10 mg/kg, tested 20 min after morphine) is “effectively blocked morphine-mediated antinociception”. Also, in the data set with Swiss Webster mice (dose-dependent study against morphine, s.c.), the “AD50 (95% CL), opioid antagonist effect” value is recorded as 7.30 (3.38-15.74) mg/kg. The “Emax(% DAMGO) ± SEM” value on MOR came to 40.43 ± 5.28 % DAMGO.
With `O=C(N[C@@H]1CC[C@@]2(O)[C@H]3Cc4ccc(O)c5c4[C@@]2(CCN3CC2CC2)[C@H]1O5)c1ccc2cc[nH]c2c1` [Compound 14, 17-Cyclopropylmethyl-3,14β-dihydroxy-4,5α-epoxy-6β-(indole-6-carboxamido)morphinan], the inhibitory constant (Ki) at KOR is 0.166 ± 0.012 nM; at DOR, 6.23 ± 0.825 nM.
Turning to `Cl.O=C(N[C@H]1CC[C@@]2(O)[C@H]3Cc4ccc(O)c5c4[C@@]2(CCN3CC2CC2)[C@H]1O5)c1ccc2cc[nH]c2c1` [Compound 5, 17-Cyclopropylmethyl-3,14β-dihydroxy-4,5α-epoxy-6α-(indole-6-carboxamido)morphinan], the figures for the Ki on KOR (setting [1]) and on DOR (setting [2]) were 1.63 ± 0.277 nM and 12.8 ± 3.36 nM, respectively. In addition, the “Emax(% DAMGO) ± SEM” value at MOR was 27.0 ± 0.31 % DAMGO.
With `O=C(N[C@@H]1CC[C@@]2(O)[C@H]3Cc4ccc(O)c5c4[C@@]2(CCN3CC2CC2)[C@H]1O5)c1c[nH]c2ccccc12` [Compound 11, 17-Cyclopropylmethyl-3,14β-dihydroxy-4,5α-epoxy-6β-(indole-3-carboxamido)morphinan], the inhibition constant Ki came to 0.16 ± 0.005 nM at KOR and 7.17 ± 1.23 nM on DOR.
Take `Cl.O=C(N[C@H]1CC[C@@]2(O)[C@H]3Cc4ccc(O)c5c4[C@@]2(CCN3CC2CC2)[C@H]1O5)c1ccc2[nH]ccc2c1` [Compound 4, 17-Cyclopropylmethyl-3,14β-dihydroxy-4,5α-epoxy-6α-(indole-5-carboxamido)morphinan]: the inhibition constant Ki came out at 3.45 ± 0.994 nM at KOR (setting [1]) and 26.7 ± 7.72 nM at DOR (setting [2]). Further, the “Emax(% DAMGO) ± SEM” value on MOR is reported as 32.2 ± 1.3 % DAMGO.
The corresponding values for `Cl.O=C(Cc1c[nH]c2ccccc12)N[C@H]1CC[C@@]2(O)[C@H]3Cc4ccc(O)c5c4[C@@]2(CCN3CC2CC2)[C@H]1O5` [Compound 7, 17-Cyclopropylmethyl-3,14β-dihydroxy-4,5α-epoxy-6α-[2-(indol-3-yl)acetamido)morphinan] are 3.13 ± 0.449 nM, 9.17 ± 2.67 nM and 33.88 ± 1.43 % DAMGO.
Turning to `Cl.O=C(N[C@@H]1CC[C@@]2(O)[C@H]3Cc4ccc(O)c5c4[C@@]2(CCN3CC2CC2)[C@H]1O5)c1cccc2[nH]ccc12` [Compound 12, 17-Cyclopropylmethyl-3,14β-dihydroxy-4,5α-epoxy-6β-(indole-4-carboxamido)morphinan], the inhibitory constant (Ki) amounted to 1.94 ± 0.299 nM at KOR and 45.9 ± 16.3 nM at DOR. For the same compound, the “Emax(% DAMGO) ± SEM” value at MOR was 15.21 ± 3.13 % DAMGO.
For the compound `Cl.O=C(CCCc1c[nH]c2ccccc12)N[C@H]1CC[C@@]2(O)[C@H]3Cc4ccc(O)c5c4[C@@]2(CCN3CC2CC2)[C@H]1O5` [Compound 9, 17-Cyclopropylmethyl-3,14β-dihydroxy-4,5α-epoxy-6α-[4-(indol-3-yl)butanamido)morphinan], the Ki at KOR (setting [1]) turned out to be 0.149 ± 0.033 nM; on DOR (setting [2]), 6.73 ± 0.396 nM. Further, the “Emax(% DAMGO) ± SEM” value at MOR came out at 48.36 ± 5.17 % DAMGO.
In the case of `Cl.O=C(N[C@H]1CC[C@@]2(O)[C@H]3Cc4ccc(O)c5c4[C@@]2(CCN3CC2CC2)[C@H]1O5)c1cc2ccccc2[nH]1` [Compound 1, 17-Cyclopropylmethyl-3,14β-dihydroxy-4,5α-epoxy-6α-(indole-2-carboxamido)morphinan], the Ki on KOR (setting [1]) is 0.926 ± 0.125 nM; at DOR (setting [2]), 14.2 ± 2.78 nM. In addition, on MOR, the “Emax(% DAMGO) ± SEM” value stood at 52.0 ± 13.5 % DAMGO.
